Measurements from patent publication US4018925A, “Method of arresting bacterial growth with certain selected dichloro-2,2,5,5-tetrasubstituted-3-6-piperazinediones” (Interx Research Corporation, priority 1975, dated 1977).
Each block holds one compound with its values, some of them ahead of it.

What was measured:
Staph. epidermidis = test: Antibacterial activity: time required for complete sterilization (modified serial dilution method); type: cell-based, Staph. epidermidis ATCC 12228
From the text: (§1) The procedure to determine the antibacterial activity of 1,4-dichloro-2,2,5,5-tetramethyl-3,6-piperazinedione was based primarily on a modification of the serial dilution method of analysis. However, instead of determining the minimum inhibitory concentration parameters for the compound investigated, applicants alternatively chose to determine the bactericidal endpoint for a given concentration of the compound investigated. Consequently, applicants studies were established to determine the time required for complete sterilization of the micro-organism tested, when exposed to a given concentration of the compound investigated.
(§2) Nutrient Broth B.B.L. -- 8g/1000 ml. distilled water. The broth contains 5g. gelysate peptone and 3g. beef extract. The solution has a pH of 6.9.
(§3) Nutrient Agar -- 23g/1000 ml. distilled water. The nutrient contains 5g. gelysate peptone, 3g. beef extract and 15g. agar.
(§4) Horse Serum T.C. -- 10% horse serum solution in distilled water. The serum solution was freshly prepared and adjusted to a pH of 7 using carbon dioxide prior to its use.
(§5) A stock solution of the isolated compound (1,4,dichloro-2,2,5,5-tetramethyl-3,6-piperazinedione) was prepared using an appropriate buffered solution.
(§6) For screening in the absence of a denaturing agent (e.g., horse serum) an equal volume of distilled water and the resulting solution was subjected to the screen.
(§7) For screening in the presence of a denaturing agent, a volume of the stock solution was diluted using an equal volume of 10% horse serum. When necessary, the final solution was adjusted to the desired pH using 1N HCL and the solution was permitted to stand at room temperature for thirty minutes prior to the screening procedure.
(§8) To 5 ml. of the stock solution being evaluated, there was added 0.2 ml. of an overnight broth culture containing the particular micro-organism being investigated (see above). At time intervals of 0.5, 1, 2, 3, 4, 5, . . . minutes, a loop of this suspension was subcultured into 5 ml. of a sterile nutrient broth. All the samples were then incubated at 37° C for seven days with daily observation for evidence of bacterial growth. The time interval reported is for that sample in which no bacterial growth was observed after the incubation period.
(§9) To 5 ml. of a sterile 0.9% sodium chloride solution, there was added 0.2 ml. of an overnight broth culture containing the particular micro-organismbeing investigated. A loop of this suspension was subcultured into 5 ml. of a sterile nutrient broth and incubated at 37° C for seven days.
(§10) To 5 ml of a sterile nutrient broth, there was added a loop of the 1,4-dichloro-2,2,5,5-tetramethyl-3,6-piperazinedione solution and the solution was mixed immediately. To this solution, there was then added a loop of an overnight broth culture which was diluted 25x with a 0.9% sodium chloride solution. Incubation was carried out for seven days at a temperature of 37° C.
(§11) At the same time intervals used for subculturing the test solution into nutrient broth during the screening procedure, a loop of the test solution was also subcultured onto sterile nutrient agar plates. This technique was useful for observing the characteristic colonial morphology of each organism.
(§12) The entire screening procedure was conducted for each buffered solution using the buffered solution rather than the 1,4-dichloro-2,2,5,5-tetramethyl-3,6-piperazinedione solution in the procedure.

E. coli = test: as above; type: cell-based, E. coli ATCC 10536
From the text: as §1, §2, §3, §4, §5, §6, §7, §8, §9, §10, §11, §12

Kleb. pneumoniae = test: as above; type: cell-based, Kleb. pneumoniae ATCC 10031
From the text: as §1, §2, §3, §4, §5, §6, §7, §8, §9, §10, §11, §12

Pseud. aeruginosa = test: as above; type: cell-based, Pseud. aeruginosa ATCC 9027
From the text: as §1, §2, §3, §4, §5, §6, §7, §8, §9, §10, §11, §12

Staph. aureus = test: as above; type: cell-based, Staph. aureus ATCC 6538
From the text: as §1, §2, §3, §4, §5, §6, §7, §8, §9, §10, §11, §12

Bord. bronchiseptica = test: as above; type: cell-based, Bord. bronchiseptica ATCC 4617
From the text: as §1, §2, §3, §4, §5, §6, §7, §8, §9, §10, §11, §12

[1] = Stability of N-chloramines in aqueous solution (half-life, iodometric and/or spectrophotometric); type: physicochemical; details: for half-life: temperature 40
Protocol: The stability of the compound, 1,4-dichloro-2,2,5,5-tetramethyl-3,6-piperazinedione in aqueous solution was determined by (1) following the disappearance of the positive chlorine concentration of the N-Chloramine solution iodometrically and/or (2) following the decrease in the absorbance at the maximum wavelength spectrophotometrically.
The data obtained was interpreted in terms of a first order kinetic process and the half-life of said compound was reported in units of time at the condition under which they were determined.

[2] = 0.1M Na2B4O7 pH8.8, diluent H2O, 0.62 × 10^-3 M (146PPM), positive Cl 43 PPM
[3] = 0.1M NaH2PO4, diluent H2O, 0.52 × 10^-3 M, positive Cl 36 PPM
[4] = 0.1M NaH2PO4 pH7.0, diluent serum (10% horse serum), 0.52 × 10^-3 M (126PPM), positive Cl 36 PPM
[5] = 0.1M NaOAc pH 4.6, diluent H2O, 0.59 × 10^-3 M (139 PPM), positive Cl 41 PPM
[6] = 0.1M NaOAc pH 4.6, diluent serum (10% horse serum), 0.59 × 10^-3 M (139 PPM), positive Cl 41 PPM

SMILES: CC1(C)C(=O)N(Cl)C(C)(C)C(=O)N1Cl [1,4-dichloro-2,2,5,5-tetramethyl-3,6-piperazinedione]
- Antibacterial activity time, 12228 (Staph. epidermidis; [2]): 2 min
- Antibacterial activity time, 12228 (Staph. epidermidis; [3]): 2 min
- Antibacterial activity time, 12228 (Staph. epidermidis; [4]): > 15 min
- Antibacterial activity time, 12228 (Staph. epidermidis; [5]): 2 min
- Antibacterial activity time, 12228 (Staph. epidermidis; [6]): > 15 min
- Antibacterial activity time, 10536 (E. coli; [2]): 1 min
- Antibacterial activity time, 10536 (E. coli; [3]): 1 min
- Antibacterial activity time, 10536 (E. coli; [4]): > 15 min
- Antibacterial activity time, 10536 (E. coli; [5]): 1 min
- Antibacterial activity time, 10536 (E. coli; [6]): > 10 min
- Antibacterial activity time, 10031 (Kleb. pneumoniae; [2]): 4 min
- Antibacterial activity time, 10031 (Kleb. pneumoniae; [3]): 4 min
- Antibacterial activity time, 10031 (Kleb. pneumoniae; [4]): > 15 min
- Antibacterial activity time, 10031 (Kleb. pneumoniae; [5]): 2 min
- Antibacterial activity time, 10031 (Kleb. pneumoniae; [6]): > 10 min
- Antibacterial activity time, 9027 (Pseud. aeruginosa; [2]): 4 min
- Antibacterial activity time, 9027 (Pseud. aeruginosa; [3]): 5 min
- Antibacterial activity time, 9027 (Pseud. aeruginosa; [4]): > 15 min
- Antibacterial activity time, 9027 (Pseud. aeruginosa; [5]): 3 min
- Antibacterial activity time, 9027 (Pseud. aeruginosa; [6]): > 10 min
- Antibacterial activity time, 6538 (Staph. aureus; [2]): 4 min
- Antibacterial activity time, 6538 (Staph. aureus; [3]): 4 min
- Antibacterial activity time, 6538 (Staph. aureus; [4]): > 15 min
- Antibacterial activity time, 6538 (Staph. aureus; [5]): 3 min
- Antibacterial activity time, 6538 (Staph. aureus; [6]): > 15 min
- Antibacterial activity time, 4617 (Bord. bronchiseptica; [2]): 4 min
- Antibacterial activity time, 4617 (Bord. bronchiseptica; [3]): 3 min
- Antibacterial activity time, 4617 (Bord. bronchiseptica; [4]): > 15 min
- Antibacterial activity time, 4617 (Bord. bronchiseptica; [5]): 1 min
- Antibacterial activity time, 4617 (Bord. bronchiseptica; [6]): > 10 min
- half-life ([1]; 0.1M Na2B4O7 pH 9.3): 38 h
- half-life ([1]; 0.1M NaH2PO4 pH 7.0): 332 h
- half-life ([1]; 0.1M NaOAc pH 4.6): 3070 h
- Stability (half-life) compared with 1,4-dichloro-2,5-piperazinedione ([1]; same pH (4.6, 7.0 and 9.3)): far greater stability (half-life)

- half-life ([1]; 0.1M Na2B4O7 pH 9.3): 0.717 h
- half-life ([1]; 0.1M NaH2PO4 pH 7.0): 0.883 h
- half-life ([1]; 0.1M NaOAc pH 4.6): 15.5 h
SMILES: O=C1CN(Cl)C(=O)CN1Cl [1,4-dichloro-2,5-piperazinedione, reference compound]
